The results in this text go back to US11319304B2, “Pyridine quinoline compounds as MGLUR4 allosteric potentiators, compositions, and methods of treating neurological dysfunction” (Vanderbilt University, priority 2017, dated 2022).

The term EC50 denotes the concentration that produces a half-maximal response.

Sequence of mGluR4 (Q14833 33-912 limits assumed): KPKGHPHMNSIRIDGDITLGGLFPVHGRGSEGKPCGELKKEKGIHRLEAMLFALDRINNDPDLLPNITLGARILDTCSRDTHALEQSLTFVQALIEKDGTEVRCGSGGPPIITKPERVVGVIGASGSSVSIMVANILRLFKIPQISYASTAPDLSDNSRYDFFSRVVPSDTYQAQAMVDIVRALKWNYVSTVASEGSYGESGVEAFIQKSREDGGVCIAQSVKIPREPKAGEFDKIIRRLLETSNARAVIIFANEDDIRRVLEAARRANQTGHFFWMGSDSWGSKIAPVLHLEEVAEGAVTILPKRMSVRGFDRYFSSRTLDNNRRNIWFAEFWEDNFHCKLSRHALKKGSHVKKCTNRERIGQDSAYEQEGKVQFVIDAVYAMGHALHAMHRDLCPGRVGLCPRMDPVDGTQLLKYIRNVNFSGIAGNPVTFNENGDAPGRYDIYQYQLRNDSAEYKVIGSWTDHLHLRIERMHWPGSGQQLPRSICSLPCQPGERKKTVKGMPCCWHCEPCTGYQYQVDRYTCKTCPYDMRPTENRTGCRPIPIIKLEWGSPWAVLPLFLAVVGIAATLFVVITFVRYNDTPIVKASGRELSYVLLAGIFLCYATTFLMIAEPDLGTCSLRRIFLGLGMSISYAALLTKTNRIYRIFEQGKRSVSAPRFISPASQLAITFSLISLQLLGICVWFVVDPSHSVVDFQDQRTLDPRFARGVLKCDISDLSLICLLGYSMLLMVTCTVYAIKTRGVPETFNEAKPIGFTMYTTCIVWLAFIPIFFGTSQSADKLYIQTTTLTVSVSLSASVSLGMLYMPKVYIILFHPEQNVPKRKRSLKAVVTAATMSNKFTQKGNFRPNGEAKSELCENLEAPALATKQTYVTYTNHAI

This experiment concerns the target mGluR4 (Homo sapiens, UniProt Q14833). As to the kind of experiment: mGlu4 PAM potentiation assay, CHO cells transfected with human mGluR4, Ca2+-sensitive dye fluorescence. It counts as cell-based. On the procedure:
The disclosed compounds and compositions can be evaluated for their ability to act as a potentiator of metabotropic glutamate receptor activity, in particular mGluR4 activity, by any suitable known methodology known in the art. For example, Chinese Hamster Ovary (CHO) cells transfected with human mGluR4 or HEK cells co-transfected with rat mGluR4 and the G-protein regulated Inwardly Rectifying Potassium channel (GIRK) were plated in clear bottom, assay plates for assay in a Hamamatsu FDSS Fluorometric Plate Reader. The cells were loaded with either a Ca2+-sensitive fluorescent dye or the thallium responsive dye and the plates were washed and placed into a suitable kinetic plate reader. For human mGluR4 assays, a fluorescence baseline was established for 3-5 seconds, the disclosed compounds were then added to the cells, and the response in cells was measured. Approximately two and a half minutes later, a concentration of mGluR4 orthosteric agonist (e.g. glutamate, L-AP4, or L-SOP) eliciting approximately 20% (EC20) of the maximal agonist response was added to the cells, and the response was measured. Two minutes later, a concentration of mGluR4 agonist (e.g. glutamate, L-AP4, or L-SOP) eliciting 80% (EC80) of the maximal agonist response was added to the cells, and the response was measured. For rat mGluR4/GIRK experiments, a baseline was established for approximately five seconds, disclosed compounds were added, and either an EC20 or EC80 concentration of agonist was added approximately two and one half minutes later. Potentiation or antagonism of the agonist response of mGluR4 by the disclosed compounds was observed as an increase or decrease in response to the EC20 concentration of agonist in the presence of compound compared to the response to agonist in the absence of compound. Similarly, potentiation or antagonism of the agonist response of mGluR4 by the disclosed Compounds was observed as an increase or decrease in response to the EC80 concentration of agonist in the presence of compound compared to the response to agonist in the absence of compound.
The above described assay operated in two modes. In the first mode, a range of concentrations of the disclosed compounds are added to cells, followed by a single fixed concentration of agonist. If the compound acts as a potentiatior, an EC50 value for potentiation and a maximum extent of potentiation by the compound at this concentration of agonist is determined by non-linear curve fitting. If the compound acts as an antagonist, an IC50 value is determined by non-linear curve fitting. In the second mode, several fixed concentrations of the disclosed compounds are added to various wells on a plate, followed by a range in concentrations of agonist for each concentration of disclosed compound. The EC50 values for the agonist at each concentration of compound are determined by non-linear curve fitting. A decrease in the EC50 value of the agonist with increasing concentrations of the sample compound (a leftward shift of the agonist concentration-response curve) is an indication of the degree of mGluR4 potentiation at a given concentration of the sample compound. A decrease in the maximal response of the agonist with increasing concentrations of the sample compounds, with or without a rightward shift in agonist potency, is an indication of the degree of antagonism at mGluR4. The second mode also indicates whether the sample compounds also affect the maximum response to mGluR4 to agonists.
With `Nc1cccnc1C(=O)Nc1ccc2c(OCC3CCOCC3)ncc(F)c2c1` [Compound 66], the EC50 came to 0.152 µM. Under `O=C(Nc1ccc2c(Oc3ccncc3)nccc2c1)c1ccc(F)cn1` [Compound 113] stands 0.608 µM.

With `O=C(Nc1cc(F)c2c(OCC3CCOC3)nccc2c1)c1ccc(F)cn1` (stereo not drawn) [Compound 81], the concentration for a half-maximal effect (EC50) was determined as 0.0816 µM.

As for `O=C(Nc1cc(F)c2c(OCC3CCOC3)nccc2c1)c1ncccc1F` (stereo not drawn) [Compound 80], the concentration for a half-maximal effect (EC50) came out at 0.312 µM. Under `CC1CC(COc2nccc3cc(NC(=O)c4ncccc4O)ccc23)CCO1` (stereo not drawn) [Compound 39] stands 0.302 µM; under `O=C(Nc1cc(F)c2c(OCC3COCCO3)nccc2c1)c1ccccn1` (stereo not drawn) [Compound 90], 0.116 µM.

In the case of `Nc1cccnc1C(=O)Nc1ccc2c(OC3CCOCC3)nccc2c1` [Compound 13], the EC50 is 0.29 µM. Regarding `CC1(C)CC(Oc2nccc3cc(NC(=O)c4ccccn4)ccc23)C(C)(C)O1` (stereo not drawn) [Compound 36], the concentration giving a half-maximal response (EC50) turned out to be 0.94 µM. Regarding `O=C(Nc1cc(F)c2c(OCC3COCCO3)nccc2c1)c1ccc(F)cn1` (stereo not drawn) [Compound 93], the EC50 is 0.302 µM. For `O=C(Nc1ccc2c(OCC3CCOC3)nccc2c1)c1ncc[nH]1` (stereo not drawn) [Compound 58], the concentration giving a half-maximal response (EC50) came out at 0.217 µM.

`O=C(Nc1ccc2c(OCC3CCOCC3)ncc(F)c2c1)c1ccccn1` [Compound 65]: the EC50 worked out at 0.144 µM. The same measure for `CC1(C)CC(COc2nccc3cc(NC(=O)c4ncccc4N)ccc23)CO1` (stereo not drawn) [Compound 49]: 0.665 µM; for `CC1(C)CC(Oc2nccc3cc(NC(=O)c4ncc(F)cc4F)cc(F)c23)CCO1` (stereo not drawn) [Compound 103]: 0.0766 µM. Under `CO[C@H](C)COc1nccc2cc(NC(=O)c3ccccn3)ccc12` [Compound 6] stands 0.166 µM.

On to `O=C(Nc1cc(F)c2c(OCC3CCOC3)nccc2c1)c1ccccn1` (stereo not drawn) [Compound 78], for which the concentration for a half-maximal effect (EC50) stood at 0.0393 µM. Under `O=C(Nc1ccc2c(OCC3CCCCO3)nccc2c1)c1ccccn1` (stereo not drawn) [Compound 8] stands 0.159 µM; under `O=C(Nc1ccc2c(OCC3CCOC3)nccc2c1)c1nc(F)ccc1F` (stereo not drawn) [Compound 74], 0.8 µM; under `CC1(C)CC(COc2nccc3cc(NC(=O)c4ccccn4)ccc23)CCO1` (stereo not drawn) [Compound 34], 0.115 µM.

Regarding `O=C(Nc1cnc2c(OCC3CCOCC3)nccc2c1)c1ccccn1` [Compound 120], the EC50 is 0.333 µM.

As to `O=C(Nc1ccc2c(OCC3COCCO3)ncc(F)c2c1)c1ccccn1` (stereo not drawn) [Compound 69], the EC50 was found to be 0.421 µM. Under `O=C(Nc1ccc2c(OCC3CCOC3)nccc2c1)c1ncccc1O` (stereo not drawn) [Compound 17] stands 0.0563 µM; under `Cc1ccoc1C(=O)Nc1ccc2c(OCC3CCOC3)nccc2c1` (stereo not drawn) [Compound 110], 0.707 µM. The same measure for `CC1COCC1COc1nccc2cc(NC(=O)c3ccccn3)ccc12` (stereo not drawn) [Compound 46]: 0.339 µM. Under `Nc1cccnc1C(=O)Nc1ccc2c(OCC3COCCO3)ncc(F)c2c1` (stereo not drawn) [Compound 68] stands 0.0905 µM; under `CC1CC(Oc2nccc3cc(NC(=O)c4ccccn4)ccc23)CCO1` (stereo not drawn) [Compound 43], 0.908 µM. Turning to `O=C(Nc1cc(F)c2c(OCC3CCOC3)nccc2c1)c1ncc(F)cc1F` (stereo not drawn) [Compound 83], the EC50 came out at 0.154 µM. Consider `Nc1cccnc1C(=O)Nc1ccc2c(OCC3CCOCC3)nccc2c1` [Compound 2], for which the concentration giving a half-maximal response (EC50) came out at 0.108 µM. The same measure for `O=C(Nc1ccc2c(OCC3CCOC3)nccc2c1)c1ccccn1` (stereo not drawn) [Compound 15]: 0.0595 µM; for `O=C(Nc1ccc2c(OCC3CCOC3)nccc2c1)c1ccc(F)cn1` (stereo not drawn) [Compound 72]: 0.211 µM. The same measure for `O=C(Nc1ccc2c(OCC3CCOCC3)nccc2c1)c1ccccn1` [Compound 1]: 0.056 µM. The same measure for `Nc1cccnc1C(=O)Nc1ccc2c(OCC3CCOC3)ncc(F)c2c1` (stereo not drawn) [Compound 63]: 0.0887 µM; for `Cc1ccc(C(=O)Nc2ccc3c(OCC4CCOCC4)nccc3c2)nc1` [Compound 104]: 0.539 µM; for `CO[C@@H](C)COc1nccc2cc(NC(=O)c3ccccn3)ccc12` [Compound 51]: 0.364 µM. Consider `Cc1ccoc1C(=O)Nc1ccc2c(OCC3CCOCC3)nccc2c1` [Compound 111], for which the EC50 is 0.122 µM. Turning to `O=C(Nc1ccc2c(OCC3CCOCC3)ncc(F)c2c1)c1ncccc1O` [Compound 67], the half-maximal effective concentration (EC50) was 0.246 µM.

Regarding `CC1(COc2nccc3cc(NC(=O)c4ccccn4)ccc23)CCOCC1` [Compound 31], the EC50 came out at 0.246 µM.

On to `CCOCCOc1nccc2cc(NC(=O)c3ncccc3O)ccc12` [Compound 5], for which the half-maximal effective concentration (EC50) is 0.229 µM.

Consider `O=C(Nc1ccc2c(OCC3COCCO3)nccc2c1)c1cccc(F)n1` (stereo not drawn) [Compound 118], for which the EC50 was 0.216 µM. The same measure for `CC(C)OCCOc1nccc2cc(NC(=O)c3ccccn3)ccc12` [Compound 26]: 0.264 µM; for `O=C(Nc1ccc2c(OCC3CCOC3)nccc2c1)c1ccsn1` (stereo not drawn) [Compound 57]: 0.159 µM. Under `CC1(COc2nccc3cc(NC(=O)c4ncccc4O)ccc23)CCOCC1` [Compound 33] stands 0.269 µM; under `CO[C@@H](C)COc1nccc2cc(NC(=O)c3ncccc3N)ccc12` [Compound 52], 0.288 µM; under `CC(C)(C)OCCOc1nccc2cc(NC(=O)c3ncccc3O)ccc12` [Compound 30], 0.493 µM. Take `Nc1cccnc1C(=O)Nc1cc(F)c2c(OCC3CCOCC3)nccc2c1` [Compound 95]: the concentration giving a half-maximal response (EC50) worked out at 0.106 µM. Under `Cn1ccnc1C(=O)Nc1ccc2c(OCC3CCOC3)nccc2c1` (stereo not drawn) [Compound 59] stands 0.817 µM. Under `COCCOc1nccc2cc(NC(=O)c3ncccc3N)ccc12` [Compound 21] stands 0.227 µM. The same measure for `O=C(Nc1ccc2c(OCC3CCOC3)ncc(F)c2c1)c1ccccn1` (stereo not drawn) [Compound 60]: 0.0829 µM. For the compound `Nc1cccnc1C(=O)Nc1ccc2c(OC3CCOCC3F)nccc2c1` (stereo not drawn) [Compound 41], the EC50 is 0.0836 µM. The same measure for `Nc1cccnc1C(=O)Nc1ccc2c(O[C@H]3CCOC3)nccc2c1` [Compound 10]: 0.529 µM; for `Nc1cccnc1C(=O)Nc1cnc2c(OCC3CCOCC3)nccc2c1` [Compound 121]: 0.116 µM. Under `CC1(COc2nccc3cc(NC(=O)c4ncccc4N)ccc23)CCOCC1` [Compound 32] stands 0.325 µM. The same measure for `CC(C)OCCOc1nccc2cc(NC(=O)c3ncccc3N)ccc12` [Compound 27]: 0.286 µM. As for `CCOCCOc1nccc2cc(NC(=O)c3ncccc3N)ccc12` [Compound 4], the EC50 was found to be 0.354 µM. Under `CC1(C)CC(Oc2nccc3cc(NC(=O)c4ncccc4O)ccc23)CCO1` (stereo not drawn) [Compound 25] stands 0.147 µM; under `Nc1cccnc1C(=O)Nc1ccc2c(OC[C@@H]3CCOC3)nccc2c1` [Compound 61], 0.114 µM. Under `O=C(Nc1ccc2c(OCC3CCOC3)nccc2c1)c1ccncn1` (stereo not drawn) [Compound 107] stands 0.226 µM; under `O=C(Nc1ccc2c(OCC3CCOC3)nccc2c1)c1ccc(O)cn1` (stereo not drawn) [Compound 108], 0.0659 µM; under `O=C(Nc1ccc2c(OCC3COCCO3)nccc2c1)c1ccc(F)cn1` (stereo not drawn) [Compound 119], 0.285 µM. The same measure for `Nc1nccnc1C(=O)Nc1ccc2c(OCC3COCCO3)nccc2c1` (stereo not drawn) [Compound 117]: 0.334 µM; for `Nc1cccnc1C(=O)Nc1ccc2c(OC[C@H]3CCOC3)nccc2c1` [Compound 62]: 0.063 µM; for `CO[C@@H](C)COc1nccc2cc(NC(=O)c3ncccc3O)ccc12` [Compound 53]: 0.244 µM. In the case of `CC(C)(C)OCCOc1nccc2cc(NC(=O)c3ncccc3N)ccc12` [Compound 29], the 50% effective concentration (EC50) is 0.794 µM.

With `CC1(C)CC(COc2nccc3cc(NC(=O)c4ccccn4)ccc23)CO1` (stereo not drawn) [Compound 48], the EC50 is 0.452 µM. As to `O=C(Nc1cc(F)c2c(OCC3CCOC3)nccc2c1)c1nc(F)ccc1F` (stereo not drawn) [Compound 84], the concentration giving a half-maximal response (EC50) amounted to 0.172 µM. The same measure for `Nc1cccnc1C(=O)Nc1ccc2c(Oc3ccncc3)nccc2c1` [Compound 112]: 0.394 µM.

Regarding `CC1COCC1COc1nccc2cc(NC(=O)c3ncccc3N)ccc12` (stereo not drawn) [Compound 47], the concentration for a half-maximal effect (EC50) was determined as 0.456 µM.
